From article PMC5509001, “Structure Modeling of Human Tyrosyl-DNA Phosphodiesterase 1 and Screening for Its Inhibitors” (Acta Naturae, 2017)

Molecular target: T1, recombinant human Tdp1 (tyrosyl-DNA phosphodiesterase 1) (Homo sapiens, UniProt Q9NUW8)
T1 construct: recombinant from plasmid pET 16B Tdp1 in Escherichia coli
Assay: real-time fluorescence biosensor (FAM-oligonucleotide-BHQ1) cleavage
Type: biochemical
Description: real-time fluorescence biosensor (FAM-oligonucleotide-BHQ1) cleavage on recombinant human Tdp1 (tyrosyl-DNA phosphodiesterase 1)

T1 sequence (Q9NUW8 whole entry): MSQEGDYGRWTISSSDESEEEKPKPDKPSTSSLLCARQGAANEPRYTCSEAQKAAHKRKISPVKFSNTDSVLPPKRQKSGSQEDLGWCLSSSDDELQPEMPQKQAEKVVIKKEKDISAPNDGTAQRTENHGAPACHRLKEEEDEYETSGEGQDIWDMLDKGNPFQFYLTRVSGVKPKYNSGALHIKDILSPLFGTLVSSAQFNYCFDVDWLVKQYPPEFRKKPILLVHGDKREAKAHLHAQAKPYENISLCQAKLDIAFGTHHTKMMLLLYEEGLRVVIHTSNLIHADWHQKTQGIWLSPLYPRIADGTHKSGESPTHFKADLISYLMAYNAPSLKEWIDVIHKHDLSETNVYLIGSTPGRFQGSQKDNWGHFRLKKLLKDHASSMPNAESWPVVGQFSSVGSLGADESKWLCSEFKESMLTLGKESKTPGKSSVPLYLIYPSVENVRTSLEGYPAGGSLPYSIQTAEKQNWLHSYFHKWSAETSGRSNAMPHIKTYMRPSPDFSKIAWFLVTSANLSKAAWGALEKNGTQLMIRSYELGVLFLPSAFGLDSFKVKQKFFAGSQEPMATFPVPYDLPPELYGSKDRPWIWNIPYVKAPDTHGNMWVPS

Row | SMILES | IC50 [µM]
1 | O=S(=O)(O)CCSc1nc2ccccc2s1 [STK370528] | 83 ± 24
2 | O=S(=O)(O)CCCSc1nc2ccccc2[nH]1 [STK376552] | 686 ± 14
